ChEMBL document CHEMBL1128112, “The Abu-pocket paradox of the cyclophilin a / cyclosporin a interaction” (1995)

Organism: Mus musculus
Test: Compound was tested in vitro for its immunosuppressive potential using mouse mixed lymphocyte reaction (MLR_M) with relative to Cyclophilin A
Type: functional

`C/C=C/C[C@@H](C)[C@@H](O)[C@H]1C(=O)N[C@@H](C(O)Cc2ccccc2)C(=O)N(C)CC(=O)N(C)[C@@H](CC(C)C)C(=O)N[C@@H](C(C)C)C(=O)N(C)[C@@H](CC(C)C)C(=O)N[C@@H](C)C(=O)N[C@H](C)C(=O)N(C)[C@@H](CC(C)C)C(=O)N(C)[C@@H](CC(C)C)C(=O)N(C)[C@@H](C(C)C)C(=O)N1C` (stereo partly specified) gave a rIC50 of 360.
